Like-named read-outs stand apart in the source and are kept apart here. Marks after values point to notes of the source that are not given here.
How the values were obtained:
CATPO [1] = target: T1, CATPO (Scytalidium thermophilum (Humicola insolens), UniProt M4GGR5); assay: Substrate-specificity analysis of the phenol oxidase activity; format: biochemical
CATPO E484A variant [2] = target: T2, CATPO E484A variant (Scytalidium thermophilum (Humicola insolens), UniProt M4GGR5, E503A); assay: as above; format: biochemical; conditions: for K m: pH 7.0 (ABTS pH 5.0), 60°C
T2 sequence (M4GGR5 entry or part of it E503A): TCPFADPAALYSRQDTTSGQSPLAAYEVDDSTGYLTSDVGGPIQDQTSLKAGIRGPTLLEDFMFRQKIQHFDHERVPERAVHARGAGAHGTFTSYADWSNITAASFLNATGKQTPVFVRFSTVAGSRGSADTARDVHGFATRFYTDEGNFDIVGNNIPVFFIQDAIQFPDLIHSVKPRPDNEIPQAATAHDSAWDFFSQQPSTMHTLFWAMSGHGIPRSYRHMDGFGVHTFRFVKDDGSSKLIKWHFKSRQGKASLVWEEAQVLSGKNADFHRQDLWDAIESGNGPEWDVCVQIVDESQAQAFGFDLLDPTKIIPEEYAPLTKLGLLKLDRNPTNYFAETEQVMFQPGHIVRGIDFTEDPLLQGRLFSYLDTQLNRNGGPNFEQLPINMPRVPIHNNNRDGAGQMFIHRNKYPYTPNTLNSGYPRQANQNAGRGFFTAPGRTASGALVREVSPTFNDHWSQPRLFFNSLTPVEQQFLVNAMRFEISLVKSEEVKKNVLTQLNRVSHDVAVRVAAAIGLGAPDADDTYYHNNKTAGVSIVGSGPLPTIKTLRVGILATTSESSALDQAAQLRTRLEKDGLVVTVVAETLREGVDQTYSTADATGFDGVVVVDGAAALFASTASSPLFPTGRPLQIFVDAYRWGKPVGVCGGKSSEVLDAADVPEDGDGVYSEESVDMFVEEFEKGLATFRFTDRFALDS

CATPO E484D variant [3] = target: T3, CATPO E484D variant (Scytalidium thermophilum (Humicola insolens), UniProt M4GGR5, E503D); format: biochemical; conditions: for K m: pH 7.0 (ABTS pH 5.0), 60°C
T3 sequence (M4GGR5 entry or part of it E503D): as the sequence (M4GGR5 entry or part of it E503A) above

CATPO E484I variant [4] = target: T4, CATPO E484I variant (Scytalidium thermophilum (Humicola insolens), UniProt M4GGR5, E503I); format: biochemical; conditions: for K m: pH 7.0 (ABTS pH 5.0), 60°C
T4 sequence (M4GGR5 entry or part of it E503I): as the sequence (M4GGR5 entry or part of it E503A) above

CATPO T188A variant [5] = target: T5, CATPO T188A variant (Scytalidium thermophilum (Humicola insolens), UniProt M4GGR5, T207A); format: biochemical; conditions: for K m: pH 7.0 (ABTS pH 5.0), 60°C
T5 sequence (M4GGR5 entry or part of it T207A): as the sequence (M4GGR5 entry or part of it E503A) above

CATPO T188D variant [6] = target: T6, CATPO T188D variant (Scytalidium thermophilum (Humicola insolens), UniProt M4GGR5, T207D); format: biochemical; conditions: for K m: pH 7.0 (ABTS pH 5.0), 60°C
T6 sequence (M4GGR5 entry or part of it T207D): as the sequence (M4GGR5 entry or part of it E503A) above

CATPO T188F variant [7] = target: T7, CATPO T188F variant (Scytalidium thermophilum (Humicola insolens), UniProt M4GGR5, T207F); format: biochemical; conditions: for K m: pH 7.0 (ABTS pH 5.0), 60°C
T7 sequence (M4GGR5 entry or part of it T207F): as the sequence (M4GGR5 entry or part of it E503A) above

CATPO T188I variant [8] = target: T8, CATPO T188I variant (Scytalidium thermophilum (Humicola insolens), UniProt M4GGR5, T207I); format: biochemical; conditions: for K m: pH 7.0 (ABTS pH 5.0), 60°C
T8 sequence (M4GGR5 entry or part of it T207I): as the sequence (M4GGR5 entry or part of it E503A) above

CATPO [9] = target: T1, CATPO; assay: Inhibition of catechol oxidation; format: biochemical
CATPO E484A variant [10] = target: T2, CATPO E484A variant; assay: biochemical
CATPO E484D variant [11] = target: T3, CATPO E484D variant; assay: biochemical
CATPO E484I variant [12] = target: T4, CATPO E484I variant; assay: biochemical
CATPO T188A variant [13] = target: T5, CATPO T188A variant; assay: biochemical
CATPO T188D variant [14] = target: T6, CATPO T188D variant; assay: biochemical
CATPO T188F variant [15] = target: T7, CATPO T188F variant; assay: biochemical
CATPO T188I variant [16] = target: T8, CATPO T188I variant; assay: biochemical
[17] = substrate: CCn1c(=NN=c2sc3cc(S(=O)(=O)O)ccc3n2CC)sc2cc(S(=O)(=O)O)ccc21; assay: purified protein, by the assay type; conditions: 60.0 °C
[18] = substrate: CC(C)(C)c1ccc(O)c(O)c1; assay: Spectrophotometric phenol oxidase assay without H2O2 at pH 7.0 and 60 °C, initial rates fitted to the Michaelis-Menten equation.; format: biochemical
Experimental: (§1) All inhibition assays were performed in triplicate.

[19] = substrate: Cc1ccc(O)c(O)c1; assay: as above; format: biochemical
Experimental: as §1

[20] = substrate: Oc1ccc(O)cc1; assay: as above; format: biochemical
Experimental: as §1

[21] = substrate: Oc1ccccc1O; assay: Spectrophotometric catechol oxidation assay at 420 nm, pH 7.0 and 60 °C; values not normalized to heme content.; format: biochemical
Experimental: as §1
Tabl e S1 Comparison of gate residues at the entrance of the main channel among large subunit […]
PDB ID e Organism Gate residues
Tabl e S2 K i neti c const ant s
**Catalase activity **Phenol oxidase activity
*KM-app kcat kcat/*KM-app KM kcat kcat/KM
(mM) (s-1) (s-1 M-1) (mM) (s-1) (s-1 M-1) Rz Heme
RZ = A407/A280. T he values were normalized to heme content in each CAT PO variant. T he values in parentheses are for unnor malized val ues a nd shaded in gre y for ease of vie wi ng. *KM-app is the H2O2 concentratio n at Vmax/2 […]
Michaelis–Menten kinetics (Switala & Loewen, 2002).
**One unit of catalase is defined as the amo unt that catalyses the degradation o f 1 µmol H2O2 in 1 min. One unit of phenol oxidase corresponds to the enzyme catalysing the formation of 1 nmol of product per minute.

[22] = catechol oxidation by CATPO, catechol 1 to 100 mM, read-out: K i

T1 sequence (M4GGR5 entry or part of it): as the sequence (M4GGR5 entry or part of it E503A) above

| Molecule | V max (CATPO [1]) | k cat/K m (CATPO [1]) | V max (CATPO E484A variant [2]) | k cat/K m (CATPO E484A variant [2]) | K m (CATPO E484A variant [2]) | V max (CATPO E484D variant [3]) | k cat/K m (CATPO E484D variant [3]) | K m (CATPO E484D variant [3]) | V max (CATPO E484I variant [4]) | k cat/K m (CATPO E484I variant [4]) | K m (CATPO E484I variant [4]) | V max (CATPO T188A variant [5]) | k cat/K m (CATPO T188A variant [5]) | K m (CATPO T188A variant [5]) | V max (CATPO T188D variant [6]) | k cat/K m (CATPO T188D variant [6]) | K m (CATPO T188D variant [6]) | V max (CATPO T188F variant [7]) | k cat/K m (CATPO T188F variant [7]) | K m (CATPO T188F variant [7]) | further results |
| --- | --- | --- | --- | --- | --- | --- | --- | --- | --- | --- | --- | --- | --- | --- | --- | --- | --- | --- | --- | --- | --- |
| CC(C)(C)c1ccc(O)c(O)c1 [1,4-tert-Butylcatechol, 4-tert-butylcatechol] | 20000 ± 362 mM/min | 1240 ± 90 s^−1 M^−1 (×10^2) | 65000 ± 745 mM/min | 10000 ± 65 s^−1 M^−1 (×10^2) | 33 ± 0.5 mM | 18800 ± 144 mM/min | 1300 ± 100 s^−1 M^−1 (×10^2) | 38 ± 0.5 mM | 28600 ± 430 mM/min | 4450 ± 66 s^−1 M^−1 (×10^2) | 37 ± 0.4 mM | 19400 ± 568 mM/min | 1460 ± 150 s^−1 M^−1 (×10^2) | 37 ± 1.0 mM | 18000 ± 500 mM/min | 6590 ± 150 s^−1 M^−1 (×10^2) | 38 ± 0.5 mM | 41600 ± 340 mM/min | 5230 ± 145 s^−1 M^−1 (×10^2) | 34 ± 0.4 mM | V max (CATPO T188I variant [8]): 30500 ± 650 mM/min; k cat/K m (CATPO T188I variant [8]): 4900 ± 410 s^−1 M^−1 (×10^2); K m (CATPO T188I variant [8]): 35 ± 0.5 mM; Ki (CATPO [9]; [22]): 2.1 ± 0.8 mM; Ki (CATPO E484A variant [10]): 67 ± 7 mM; Ki (CATPO E484D variant [11]): 2.2 ± 0.5 mM; Ki (CATPO E484I variant [12]): 50 ± 1.5 mM; Ki (CATPO T188A variant [13]): 2.1 ± 0.1 mM; Ki (CATPO T188D variant [14]): 49 ± 3.2 mM; Ki (CATPO T188F variant [15]): 59 ± 4.5 mM; Ki (CATPO T188I variant [16]): 53 ± 4.5 mM |
| Cc1ccc(O)c(O)c1 [4-Methylcatechol, 4-methylcatechol] | 21320 ± 845 mM/min | 1580 ± 110 s^−1 M^−1 (×10^2) | 75500 ± 550 mM/min | 10100 ± 90 s^−1 M^−1 (×10^2) | 33 ± 1.0 mM | 20600 ± 712 mM/min | 1500 ± 88 s^−1 M^−1 (×10^2) | 36 ± 0.1 mM | 41500 ± 840 mM/min | 5480 ± 80 s^−1 M^−1 (×10^2) | 35 ± 0.7 mM | 21000 ± 880 mM/min | 1640 ± 210 s^−1 M^−1 (×10^2) | 35 ± 1.0 mM | 28000 ± 970 mM/min | 7620 ± 100 s^−1 M^−1 (×10^2) | 30 ± 0.1 mM | 54150 ± 800 mM/min | 6570 ± 560 s^−1 M^−1 (×10^2) | 32 ± 1.0 mM | V max (CATPO T188I variant [8]): 43000 ± 900 mM/min; k cat/K m (CATPO T188I variant [8]): 6600 ± 600 s^−1 M^−1 (×10^2); K m (CATPO T188I variant [8]): 34 ± 1.2 mM; Ki (CATPO [9]; [22]): 1.5 ± 0.4 mM; Ki (CATPO E484A variant [10]): 55 ± 5 mM; Ki (CATPO E484D variant [11]): 1.5 ± 0.1 mM; Ki (CATPO E484I variant [12]): 46 ± 2 mM; Ki (CATPO T188A variant [13]): 1.5 ± 0.4 mM; Ki (CATPO T188D variant [14]): 50 ± 2.5 mM; Ki (CATPO T188F variant [15]): 45 ± 4.8 mM; Ki (CATPO T188I variant [16]): 40 ± 2.4 mM |
| Oc1ccc(O)cc1 [Hydroquinone, p-hydroquinone] | 10000 ± 300 mM/min | 750 ± 50 s^−1 M^−1 (×10^2) | 17800 ± 100 mM/min | 600 ± 40 s^−1 M^−1 (×10^2) | 43 ± 1.2 mM | 9900 ± 125 mM/min | 300 ± 50 s^−1 M^−1 (×10^2) | 46 ± 0.8 mM | 10000 ± 100 mM/min | 460 ± 20 s^−1 M^−1 (×10^2) | 45 ± 1.3 mM | 9850 ± 85 mM/min | 300 ± 30 s^−1 M^−1 (×10^2) | 46 ± 0.4 mM | 9600 ± 65 mM/min | 480 ± 64 s^−1 M^−1 (×10^2) | 46 ± 1.0 mM | 13000 ± 140 mM/min | 530 ± 65 s^−1 M^−1 (×10^2) | 42 ± 1.0 mM | K m (CATPO [1]; pH 7.0 (ABTS pH 5.0), 60°C): 45 ± 1.5 mM; V max (CATPO T188I variant [8]): 11000 ± 110 mM/min; k cat/K m (CATPO T188I variant [8]): 490 ± 78 s^−1 M^−1 (×10^2); K m (CATPO T188I variant [8]): 44 ± 0.4 mM; Ki (CATPO [9]): 8.5 ± 0.5 mM; Ki (CATPO E484A variant [10]): 81 ± 4.7 mM; Ki (CATPO E484D variant [11]): 8.5 ± 1.4 mM; Ki (CATPO E484I variant [12]): 70 ± 3.5 mM; Ki (CATPO T188A variant [13]): 8.6 ± 0.6 mM; Ki (CATPO T188D variant [14]): 66 ± 5.5 mM; Ki (CATPO T188F variant [15]): 76 ± 5.1 mM; Ki (CATPO T188I variant [16]): 70 ± 4 mM |
| T188A (Mycothermus thermophilus; T207A) (protein, recombinant, pET-28-TEV-CATPO; contains heme d; Rz 0.7) TCPFADPAALYSRQDTTSGQSPLAAYEVDDSTGYLTSDVGGPIQDQTSLKAGIRGPTLLEDFMFRQKIQHFDHERVPERAVHARGAGAHGTFTSYADWSNITAASFLNATGKQTPVFVRFSTVAGSRGSADTARDVHGFATRFYTDEGNFDIVGNNIPVFFIQDAIQFPDLIHSVKPRPDNEIPQAAAAHDSAWDFFSQQPSTMHTLFWAMSGHGIPRSYRHMDGFGVHTFRFVKDDGSSKLIKWHFKSRQGKASLVWEEAQVLSGKNADFHRQDLWDAIESGNGPEWDVCVQIVDESQAQAFGFDLLDPTKIIPEEYAPLTKLGLLKLDRNPTNYFAETEQVMFQPGHIVRGIDFTEDPLLQGRLFSYLDTQLNRNGGPNFEQLPINMPRVPIHNNNRDGAGQMFIHRNKYPYTPNTLNSGYPRQANQNAGRGFFTAPGRTASGALVREVSPTFNDHWSQPRLFFNSLTPVEQQFLVNAMRFEISLVKSEEVKKNVLTQLNRVSHDVAVRVAAAIGLGAPDADDTYYHNNKTAGVSIVGSGPLPTIKTLRVGILATTSESSALDQAAQLRTRLEKDGLVVTVVAETLREGVDQTYSTADATGFDGVVVVDGAAALFASTASSPLFPTGRPLQIFVDAYRWGKPVGVCGGKSSEVLDAADVPEDGDGVYSEESVDMFVEEFEKGLATFRFTDRFALDS | – | – | – | – | – | – | – | – | – | – | – | – | – | – | – | – | – | – | – | – | Km [17]: 52 ± 0.8 mM; Km [18]: 37 ± 1.0 mM; Km [19]: 35 ± 1.0 mM; Km [20]: 46 ± 0.4 mM; Km [21]: 33 ± 0.5 mM; kcat [21]: 6700 ± 335 s⁻¹; kcat/Km [21]: 200000 ± 12000 M⁻¹ s⁻¹ |

From publication PMC10836395, “Investigation of how gate residues in the main channel affect the catalytic activity of Scytalidium thermophilum catalase” (Acta Crystallographica. Section D, Structural Biology, 2024)
